EP0331184A2, “Peptide equivalents of non-peptides and methods of design therefor” (THE BOARD OF TRUSTEES OF THE UNIVERSITY OF ALABAMA FOR ITS …, priority 1988, dated 1989)

Tested on: dog kidney Na⁺K⁺ATPase
Assay: ³H-ouabain radioreceptor assay
Type: binding
Conditions: 10⁻⁴M concentrations
Experimental: The linked-enzyme, spectrophotometric assay measuring hydrolysis of ATP was performed as described in Example 1. The ³H-ouabain radioreceptor assay was performed in 0.5 ml of 50 mM Tris HCl (pH 7.4) containing 0.5 mM EDTA, 4 mM MgSO₄, 80 mM NaCl, 5mM ATP, 7.5 ug of dog kidney Na⁺K⁺ATPase (Sigma), 7.8 nCi of [21, 22-³H]-ouabain (specific activity = 15.6 Ci/mmol; Amersham), and 0.1% gelatin. Test samples were incubated for 2 hr at 37°C; ATP and ³H-ouabain were absent during the first hour but present during the second hour. The glycopeptide 1-39 used in these experiments was isolated to homogeneity as described in Fig. 6; eOLP refers to the partially purified, endogenous ouabain-like substance described in the text, and its amounts are expressed as ul of acetonitrile/TFA. Samples of these preparations, both in acetonitrile/0.1% trifluoroacetic acid, were evaporated under a stream of nitrogen gas and redissolved in 0.1% gelatin in preparation for assay. ³H-ouabain bound to Na⁺K⁺ATPase was recovered on Whatman GF/F glass microfiber filters using vacuum filtration. The filters had been soaked in 0.3% aqueous polyethylenimine for 2 hr immediately before filtration. The filters were added to scintillation fluid in vials and counted in a liquid scintillation spectrometer. […]

displacing activity in the ³H-ouabain radioreceptor assay | Substance
no displacing activity | lysine vasopressin
no displacing activity | oxytocin
